Results as given in patent US4743587A, “Hydroxamic acid based collagenase inhibitors” (G. D. Searle & Co., priority 1986, dated 1988).

Target: T1, Human Rheumatoid Synovial Collagenase (Homo sapiens, UniProt P03956)
T1 construct: from tissue
T1 sequence (P03956 100-469): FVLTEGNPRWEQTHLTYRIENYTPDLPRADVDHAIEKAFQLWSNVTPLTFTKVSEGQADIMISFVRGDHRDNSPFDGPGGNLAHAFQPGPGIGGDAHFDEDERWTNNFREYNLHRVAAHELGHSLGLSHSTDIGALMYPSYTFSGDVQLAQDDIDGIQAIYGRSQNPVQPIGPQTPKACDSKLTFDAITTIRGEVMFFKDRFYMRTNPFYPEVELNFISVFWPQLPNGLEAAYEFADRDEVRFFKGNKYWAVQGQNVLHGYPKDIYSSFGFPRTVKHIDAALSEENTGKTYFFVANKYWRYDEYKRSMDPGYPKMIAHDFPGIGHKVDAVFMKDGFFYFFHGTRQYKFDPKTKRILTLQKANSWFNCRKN
Assay: Collagenase inhibition (acetyl 14C collagen hydrolysis, procedure of Cawston and Barrett)
Type: biochemical
Conditions: incubated at 37° C. for 16 hours with native acetyl 14C collagen and collagenase, Tris HCl-CaCl2, pH 7.6
Method: This was determined following the procedure of Cawston and Barrett, (Anal. […] The collagen is acetyl ^14 C collagen. The samples are centrifuged to sediment undigested collagen and an aliquot of the radioactive supernatant removed for assay on a scintillation counter as a measure of hydrolysis.

Row | SMILES | IC50
1 | CNC(=O)[C@H](Cc1ccc(OC)cc1)NC(=O)C(CC(C)C)C(C)C(=O)NO (single isomer, unassigned) [3(A), N-[3-(N'-Hydroxycarboxamido)-2-(2-methylpropyl)butanoyl]-O-methyl-L-tyrosine N-Methylamide] | 0.4 µM
2 | CNC(=O)[C@H](Cc1ccc(OC)cc1)NC(=O)C(CC(C)C)C(C)C(=O)NO (single isomer, unassigned) [3(B), N-[3-(N'-Hydroxycarboxamido)-2-(2-methylpropyl)butanoyl]-O-methyl-L-tyrosine N-Methylamide] | 20 µM
3 | CNC(=O)[C@H](Cc1ccc(OC)cc1)NC(=O)C(CC(C)C)C(C)C(=O)NO (single isomer, unassigned) [3(C), N-[3-(N'-Hydroxycarboxamido)-2-(2-methylpropyl)butanoyl]-O-methyl-L-tyrosine N-Methylamide] | 0.02 µM
4 | CNC(=O)[C@H](Cc1ccc(OC)cc1)NC(=O)C(CC(C)C)C(C)C(=O)NO (single isomer, unassigned) [3(D), N-[3-(N'-Hydroxycarboxamido)-2-(2-methylpropyl)butanoyl]-O-methyl-L-tyrosine N-Methylamide] | 0.3 µM
5 | CNC(=O)[C@H](C)NC(=O)C(CC(=O)NO)CC(C)C (single isomer, unassigned) [8(A), N-[3-(N'-Hydroxycarboxamido)-2-(2-methylpropyl)propanoyl]-L-alanine N-Methylamide] | 0.15 µM
6 | CNC(=O)[C@H](Cc1ccc(O)cc1)NC(=O)C(CC(=O)NO)CC(C)C (single isomer, unassigned) [9(A), N-[3-(N'-Hydroxycarboxamido)-2-(2-methylpropyl)propanoyl]-L-tyrosine N-Methylamide] | 0.037 µM
7 | CNC(=O)[C@H](Cc1ccc(O)cc1)NC(=O)C(CC(=O)NO)CC(C)C (single isomer, unassigned) [9(B), N-[3-(N'-Hydroxycarboxamido)-2-(2-methylpropyl)propanoyl]-L-tyrosine N-Methylamide] | 0.52 µM
8 | CCCCC(C(=O)NO)C(CC(C)C)C(=O)N[C@@H](Cc1ccc(OC)cc1)C(=O)NC (single isomer, unassigned) [18(A), N-[3-(N'-Hydroxycarboxamido)-2-(2-methylpropyl)heptanoy]-O-methyl-L-tyrosine N-Methylamide] | 0.2 µM
9 | CCCCC(C(=O)NO)C(CC(C)C)C(=O)N[C@@H](Cc1ccc(OC)cc1)C(=O)NC (single isomer, unassigned) [18(B), N-[3-(N'-Hydroxycarboxamido)-2-(2-methylpropyl)heptanoy]-O-methyl-L-tyrosine N-Methylamide] | > 100 µM
10 | CNC(=O)[C@H](C)NC(=O)C(CC(C)C)C(C)C(=O)NO (single isomer, unassigned) [19(A), N-[3-(N'-Hydroxycarboxamido)-2-(2-methylpropyl)butanoyl]-L-alanine N-Methylamide] | 100 µM
11 | CNC(=O)[C@H](C)NC(=O)C(CC(C)C)C(C)C(=O)NO (single isomer, unassigned) [19(B), N-[3-(N'-Hydroxycarboxamido)-2-(2-methylpropyl)butanoyl]-L-alanine N-Methylamide] | 0.3 µM
12 | CNC(=O)[C@H](Cc1ccc(OC)cc1)NC(=O)C(=CC(=O)NO)CC(C)C [Example 7, N-[3-(N'-Hydroxycarboxamido)-2-(2-methylpropyl)propenoyl]-O-methyl-L-tyrosine N-Methylamide] | 0.7 µM
13 | CNC(=O)[C@H](Cc1ccc(OC)cc1)NC(=O)C(CC(C)C)=C(C)C(=O)NO [Example 20, N-[3-(N'-Hydroxycarboxamido)-2-(2-methylpropyl)-Δ^2,3-butenoyl]-O-methyl-L-tyrosine N Methylamide] | 1 µM

Continued, values first:

Row | IC50 | SMILES
14 | 0.6 µM | CNC(=O)[C@H](Cc1ccc(OC)cc1)NC(=O)C(CC(C)C)C(C(=O)NO)c1ccccc1 (single isomer, unassigned) [4(A), N-[3-(N'-Hydroxycarboxamido)-2-(2-methylpropyl)-3-phenylpropanoyl]-O-methyl-L-tyrosine N-Methylamide]
15 | 1 µM | CNC(=O)[C@H](Cc1ccc(OC)cc1)NC(=O)C(CC(C)C)C(C(=O)NO)c1ccccc1 (single isomer, unassigned) [4(B), N-[3-(N'-Hydroxycarboxamido)-2-(2-methylpropyl)-3-phenylpropanoyl]-O-methyl-L-tyrosine N-Methylamide]
16 | 1 µM | CCCCC(CC(=O)NO)C(=O)N[C@@H](Cc1ccc(OC)cc1)C(=O)NC (single isomer, unassigned) [12(B)]
17 | 5 µM | CNC(=O)[C@H](Cc1ccc(OC)cc1)NC(=O)C(CC(=O)NO)Cc1ccccc1 (single isomer, unassigned) [13(A), N-[3-(N'-Hydroxycarboxamido)-2-benzylpropanoyl]-O-methyl-L-tyrosine N-Methylamide]
18 | > 100 µM | CNC(=O)[C@H](Cc1ccc(OC)cc1)NC(=O)C(CC(=O)NO)Cc1ccccc1 (single isomer, unassigned) [13(B), N-[3-(N'-Hydroxycarboxamido)-2-benzylpropanoyl]-O-methyl-L-tyrosine N-Methylamide]
19 | 0.03 µM | CCCCC(CC(=O)NO)C(=O)N[C@@H](Cc1ccc(OC)cc1)C(=O)NC (stereo partly drawn) [12(A)]
20 | 100 to 1000 µM | CNC(=O)[C@H](Cc1ccc(OC)cc1)NC(=O)C(C)CC(=O)NO (stereo partly drawn) [Example 5, N-[3-(N'-Hydroxycarboxamido)-2-methylpropanoyl]-O-methyl-L-tyrosine N-Methylamide]
21 | > 1000 µM | CNC(=O)[C@H](Cc1ccc(OC)cc1)NC(=O)CCC(=O)NO [Example 6, N-[3-(N'-Hydroxycarboxamido)propanoyl]-O-methyl-L-tyrosine N-Methylamide]
